Assay: Ready-to-use formulation stability at 2-8° C., 5 mg/mL (R,R)-pyrodach-2 in 10 mM Potassium Phosphate Buffer at pH 7.2, 10 mL vials
Format: physicochemical
Experimental: A scalable and commercially viable process for the manufacture of a ready-to-use formulation of (R,R)-pyrodach-2 in 10 mM buffer adjusted to a pH of 7.0-7.5 comprises the steps of: a) preparing a 10 mM aqueous solution of buffer; b) adding sufficient hydroxide base to effect neutralization of the added (R,R)-pyrodach-2 to reach a pH of about 7; c) adding (R,R)-pyrodach-2 and allowing it to dissolve; d) if necessary adding additional hydroxide to adjust the pH into a range of about 7.0-7.5; and e) filtering the solution under sterile conditions, filling the solution into glass vials, and covering it with a stopper and/or a cap. Stability data on two large batches of 5 mg/mL (R,R)-pyrodach-2 in 10 mM potassium phosphate buffer were generated. One such batch at pH=7.2 was evaluated at both 25° C./60% RH and refrigerated (2-8° C.) conditions, with data summarized in Table 4 and Table 5, respectively. […] Similar observations have been made for the ready-to-use liquid formulation at pH7.4, as illustrated in Table 6 and Table 7.
• Transfer 4564.6 mg±0.5 mg of potassium phosphate dibasic, trihydrate to a 2-L volumetric flask. • Fill flask to approximately 75% volume with water, swirl as needed to dissolve all solids. • Volumetrically transfer 32.0 mL of 1N KOH to flask. • Dilute flask to volume with water and mix well. • Record pH of final solution. This is the diluent. • Transfer 7653.1 mg±0.5 mg of (R,R)-pyrodach-2 to a compounding vessel. • Transfer 1500 mL of the diluent to the vessel and stir to dissolve solids. • Record pH of final solution. • Pass entire solution through a 0.22 μm sterile filter membrane into a sterile collection vessel. • Calculate (R,R)-pyrodach-2 solution concentration
To a […] glass beaker equipped with mechanical mixer was add 24645.5 g of sterile water for injection. With agitation 47.03 gm of dibasic potassium phosphate USP was added and the solids allowed to dissolve. To the stirred solution was added 253.8 gm of 1.00 N potassium hydroxide. Sterile water for injection USP (900.0 gm) was used as a rinse to facilitate both additions. With vigorous agitation, (R,R)-pyrodach-2 (201.87 gm) was slowly added and agitation continued until all of the solids dissolved. Sterile water for injection USP (900.0 gm) was used as a rinse to facilitate the addition. The pH was determined to be 6.7. A total of 85 mL of 1.00 N potassium hydroxide was added in 5.0 mL aliquots to adjust the pH to 7.3. The solution was sterile filtered through 0.22μ Millipore Millipack filter and aseptically filled, 10 ml top a vial in 10 mL in 10 cc Wheaton clear molded vails, stoppered with a 20 mm stopper and crimp seal capped.

O=P1(O)OP(=O)(O)[O][Pt]2([NH][C@@H]3CCCC[C@H]3[NH]2)[O]1 (stereo partly drawn) [(R,R)-pyrodach-2, (R,R)-trans-1,2-cyclohexanediamine-(dihydrogenpyrophosphato)platinum(II)]
Assay (Potency) (15 Month): 98.7% | PT-112 Dimer (~RRT 4.0) (15 Month): 0.29% | RRT 0.50 (15 Month): 0.07% | RRT 0.56 (15 Month): 0.19% | RRT 0.68 (15 Month): 0.06% | RRT 3.1-3.2 (15 Month): 0.22% | Total Related Substances (15 Month): 2% | pH (15 Month): 7.2 | (DACH) Pt-diaquo (~RRT 0.3) (18 Month): 0.15% | (DACH) Pt-monoaquo (~RRT 0.7) (18 Month): 0.93% | Assay (Potency) (18 Month): 100.3% | PT-112 Dimer (~RRT 4.0) (18 Month): 0.31% | RRT 0.50 (18 Month): 0.07% | RRT 0.56 (18 Month): 0.19% | RRT 0.68 (18 Month): 0.07% | RRT 3.1-3.2 (18 Month): 0.19% | RRT 3.54 (18 Month): 0.05% | Total Related Substances (18 Month): 2% | pH (18 Month): 7.3 | (DACH) Pt-diaquo (~RRT 0.3) (24 Month): 0.17% | (DACH) Pt-monoaquo (~RRT 0.7) (24 Month): 0.82% | Assay (Potency) (24 Month): 97.1% | PT-112 Dimer (~RRT 4.0) (24 Month): 0.31% | RRT 0.46 (24 Month): 0.06% | RRT 0.50 (24 Month): 0.22% | RRT 0.56 (24 Month): 0.09% | RRT 0.68 (24 Month): 0.05% | RRT 3.1-3.2 (24 Month): 0.22% | RRT 3.54 (24 Month): 0.11% | Total Related Substances (24 Month): 2% | pH (24 Month): 7.2 | Particulate Matter (Light Obscuration) (24 Month, first value): 41 particles per container | Particulate Matter (Light Obscuration) (24 Month, second value): 12 particles per container | (DACH) Pt-diaquo (~RRT 0.3) (30 Month): 0.14% | (DACH) Pt-monoaquo (~RRT 0.7) (30 Month): 0.96% | Assay (Potency) (30 Month): 98.2% | PT-112 Dimer (~RRT 4.0) (30 Month): 0.33% | RRT 0.50 (30 Month): 0.17% | RRT 0.56 (30 Month): 0.19% | RRT 0.68 (30 Month): 0.08% | RRT 3.1-3.2 (30 Month): 0.31% | RRT 3.54 (30 Month): 0.10% | Total Related Substances (30 Month): 2% | pH (30 Month): 7.2 | Particulate Matter (Light Obscuration) (30 Month, first value): 62 particles per container | Particulate Matter (Light Obscuration) (30 Month, second value): 6 particles particles per container | (DACH) Pt-diaquo (~RRT 0.3) (36 Month): 0.12% | (DACH) Pt-monoaquo (~RRT 0.7) (36 Month): 1.16% | Assay (Potency) (36 Month): 97.8% | PT-112 Dimer (~RRT 4.0) (36 Month): 0.36% | RRT 0.46 (36 Month): 0.07% | RRT 0.50 (36 Month): 0.23% | RRT 0.56 (36 Month): 0.11% | RRT 0.68 (36 Month): 0.09% | RRT 3.1-3.2 (36 Month): 0.30% | RRT 3.54 (36 Month): 0.14% | Total Related Substances (36 Month): 3% | pH (36 Month): 7.2 | (DACH) Pt-diaquo (~RRT 0.3) (Initial): 0.16% | (DACH) Pt-monoaquo (~RRT 0.7) (Initial): 0.98% | Assay (Potency) (Initial): 99.8% | PT-112 Dimer (~RRT 4.0) (Initial): 0.19% | RRT 0.56 (Initial): 0.13% | RRT 0.68 (Initial): 0.05% | Total Related Substances (Initial): 2% | pH (Initial): 7.2 | Particulate Matter (Light Obscuration) (Initial, first value): 219 particles per container | Particulate Matter (Light Obscuration) (Initial, second value): 11 particles per container

— patent publication US11154529B2, “Phosphaplatin liquid formulations” (Phosplatin Therapeutics Inc., priority 2016, dated 2021)
